Source: patent EP2930248B1, “METHOD FOR PREDICTING SENSITIVITY OF OSTEOSARCOMA PATIENT TO ANTICANCER AGENT” (National Cancer Center, priority 2014, dated 2015)

Assays:
143B = assay: Sensitivity test: cell viability (Cell Counting Kit-8) after anticancer agent, RNA-transfected cells; type: cell-based, Human; conditions: 143B cells, MTX 72 hours, DOX and CDDP 48 hours
Description: (§1) Human osteosarcoma cell lines used were MNNG/HOS, MG63 and 143B. The cells were seeded in a 96-well plate at 3 x 10^3 cells/well. After 24 hours, the medium was replaced with fresh medium and miRNA-100 (SEQ ID NO: 1), miRNA-125b (SEQ ID NO: 2) or negative control (nonsense RNA) (microRNA control, Non-target RNA (S10CM0600; COSMO BIO Co., Ltd)) was introduced to the cells using DharmaFECT transfection reagents (Thermo Scientific). At 24 hours after RNA introduction, the medium was replaced with fresh medium. Specific procedures followed the protocol attached to the gene transfer reagents used.
(§2) Methotrexate (MTX), doxorubicin (DOX) and cisplatin (CDDP) were applied to the cells lines MNNG/HOS, MG63 or 143B to which various RNAs were introduced under following conditions followed by incubation over a certain period. The viability of the cells thereafter was measured with the Cell Counting Kit-8 (Dojindo Laboratories). Specific procedures followed the protocol attached to the kit used.
(§3) Methotrexate (MTX): applied at a final concentration of 0 to 32 µM and incubated for 72 hours.
(§4) Doxorubicin (DOX): applied at a concentration of 0 to 1.3 µM and incubated for 48 hours.
(§5) Cisplatin (CDDP): applied at a final concentration of 0 to 32 µM and incubated for 48 hours.
(§6) From the results of measurement of the viability of the cells, the 50% inhibitory concentration of cell proliferation (IC50) for each anticancer agent was determined.

MNNG/HOS = assay: as above; type: cell-based, Human; conditions: MTX 72 hours, DOX and CDDP 48 hours
Description: as §1, §2, §3, §4, §5, §6

MG63 = assay: as above; type: cell-based, Human; conditions: MTX 72 hours, DOX and CDDP 48 hours
Description: as §1, §2, §3, §4, §5, §6

BAK1 = BAK1 protein expression by western blotting in RNA-transfected MNNG/HOS cells; type: cell-based, human; conditions: with application of DOX 64 µM, 48 hours, Fig. 8
Description: as §1, with “A human” for “Human”, “line” for “lines”, “was MNNG/HOS.” for “were MNNG/HOS, MG63 and 143B.”, “and” for “and miRNA-100 (SEQ ID NO: 1),”
Doxorubicin (DOX) at a final concentration of 0 µM or 64 µM was applied to MNNG/HOS cells to which various RNAs were introduced as above (1) and then the cells were incubated for 48 hours. To the collected cells was added a urea-containing lysis buffer and the mixture was incubated on ice for 30 minutes to lyse the cells. The lysed cells were centrifuged at 15,000 rpm for 30 minutes at 4°C and the supernatant was collected. The protein concentration in the supernatant was quantified by the Bradford assay (Bio-Rad).
Proteins in the supernatant were separated by electrophoresis using an SDS/polyacrylamide gel and transferred onto a nitrocellulose membrane (Bio-Rad). […] After the membrane was washed with TBS-T, the antigen-antibody complex was detected with the ECL-Prime kit (GE).

[1] = control (negative control nonsense RNA) introduced
[2] = Homo sapiens, 143B, control (negative control nonsense RNA) introduced
[3] = Homo sapiens, 143B, miR-100 introduced
[4] = Homo sapiens, 143B, miR-125b introduced
[5] = Homo sapiens, HOS, control (negative control nonsense RNA) introduced
[6] = Homo sapiens, HOS, miR-100 introduced
[7] = Homo sapiens, HOS, miR-125b introduced
[8] = Homo sapiens, MG-63, MG63 cells, control (negative control nonsense RNA) introduced
[9] = Homo sapiens, MG-63, MG63 cells, miR-100 introduced
[10] = Homo sapiens, MG-63, MG63 cells, miR-125b introduced

Row | IC50 (143B; [1]) | IC50 (143B; miR-100 introduced) | IC50 (143B; miR-125b introduced) | IC50 (MNNG/HOS; [1]) | IC50 (MNNG/HOS; miR-100 introduced) | IC50 (MNNG/HOS; miR-125b introduced) | IC50 (MG63; MG63 cells, control (negative control nonsense RNA) introduced) | IC50 (MG63; MG63 cells, miR-100 introduced) | IC50 (MG63; MG63 cells, miR-125b introduced) | IC50 (143B; [2]) | IC50 (143B; [3]) | IC50 (143B; [4]) | IC50 (MNNG/HOS; [5]) | IC50 (MNNG/HOS; [6]) | IC50 (MNNG/HOS; [7]) | IC50 (MG63; [8]) | IC50 (MG63; [9]) | IC50 (MG63; [10]) | Structure (SMILES) | expression level of BAK1 in NC versus miRNA-125b-introduced cell line (BAK1)
1 | 12300 nM | 14500 nM | 14100 nM | 5700 nM | 6970 nM | 7320 nM | 2910 nM | 2570 nM | 1630 nM |  |  |  |  |  |  |  |  |  | [NH2][Pt]([NH2])([Cl])[Cl] [CDDP, Cisplatin] | 
2 |  |  |  |  |  |  |  |  |  | 64 nM | 77 nM | 72 nM | 180 nM | 250 nM | 370 nM | 65 nM | 73 nM | 74 nM | COc1cccc2c1C(=O)c1c(O)c3c(c(O)c1C2=O)C[C@@](O)(C(=O)CO)C[C@@H]3O[C@H]1C[C@H](N)[C@H](O)[C@H](C)O1 [DOX, Doxorubicin] | almost the same
3 |  |  |  |  |  |  |  |  |  | 1490 nM | 3210 nM | 3970 nM | 1050 nM | 2520 nM | 4030 nM | 3090 nM | 7180 nM | 7740 nM | CN(Cc1cnc2nc(N)nc(N)c2n1)c1ccc(C(=O)N[C@@H](CCC(=O)O)C(=O)O)cc1 [MTX, Methotrexate] | 
